According to ChEMBL document CHEMBL5584295, “Formononetin Derivative for Osteoporosis by Simultaneous Regulating Osteoblast and Osteoclast” (J Nat Prod, 2024):
The source made the active and inactive calls. The calls are words filed in the database; no cut-off is given here.

How the values were obtained:
[1] = Induction of osteogenesis in Wistar rat bone marrow-derived MSC assessed as increase in bone formation by measuring fold change at 0.4 uM measured after 14 days with fresh culture medium replacement for every 3 days by Alizarin red staining based analysis; assay type: functional; conditions: time 14 day
[2] = Cytotoxicity against Wistar rat bone marrow-derived MSC assessed as reduction in cell viability at 0.4 to 10 uM after 72 hrs by MTS assay; assay type: toxicity, cell-based; conditions: dose 0.4-10 µM
[3] = Cytotoxicity against Wistar rat bone marrow-derived MSC assessed as inhibition of cell viability at 10 uM after 72 hrs by MTS assay relative to control; assay type: toxicity, cell-based; conditions: bone marrow-derived mesenchymal stem cells (MSC), read-out: INH
[4] = Cytotoxicity against Wistar rat bone marrow-derived MSC assessed as reduction in cell viability at 0.4 to 2 uM after 72 hrs by MTS assay; assay type: toxicity, cell-based; conditions: dose 0.4-2 µM
Mus musculus [5] = test: Anti-osteoporosis activity in OVX-induced osteoporosis ICR mouse model assessed as increase in trabecular number in femur at 20 mg/kg, IG and measured after 12 weeks by micro-CT analysis; assay type: functional, organism-based
MSC [6] = test: Activation of BMP/Smad signaling pathway in Wistar rat bone marrow-derived MSC assessed as increase in bmp2 mRNA expression at 0.4 uM incubated for 14 days by RT-qPCR analysis; assay type: cell-based; conditions: filed as activator, time 14.0 day
MSC [7] = test: Activation of BMP/Smad signaling pathway in Wistar rat bone marrow-derived MSC assessed as increase in smad1 mRNA expression at 0.4 uM incubated for 14 days by RT-qPCR analysis; assay type: cell-based; conditions: filed as activator, time 14.0 day
Mus musculus [8] = test: Anti-osteoporosis activity in OVX-induced osteoporosis ICR mouse model assessed as decrease in trabecular spacing by in femur at 10 mg/kg, ip and measured after 12 weeks by micro-CT analysis relative to control; assay type: functional; design: scale not given: the % may be the effect or the level left
RAW264.7 [9] = test: Inhibition of RANKL-induced osteoclastogenesis in mouse RAW264 cells assessed as number of osteoclast at 10 uM incubated for 5 days by TRAP staining based microscopic analysis (reference value: 95); assay type: functional; conditions: time 5 day
Mus musculus [10] = test: Anti-osteoporosis activity in OVX-induced osteoporosis ICR mouse model assessed as increase in trabecular thickness by measuring fold change in femur at 10 mg/kg, ip and measured after 12 weeks by micro-CT analysis; assay type: functional
RAW264.7 [11] = test: Inhibition of RANKL-induced osteoclastogenesis in mouse RAW264 cells assessed as number of osteoclast at 5 uM incubated for 5 days by TRAP staining based microscopic analysis (reference value: 95); assay type: functional; conditions: time 5 day
Mus musculus [12] = test: Anti-osteoporosis activity in OVX-induced osteoporosis ICR mouse model assessed as increase in bone mineral density by measuring fold change in femur at 10 mg/kg, ip and measured after 12 weeks by micro-CT analysis; assay type: functional
RAW264.7 [13] = test: Inhibition of RANKL-induced osteoclastogenesis in mouse RAW264 cells assessed as number of osteoclast at 1 uM incubated for 5 days by TRAP staining based microscopic analysis (reference value: 95); assay type: functional; conditions: time 5 day
MSC [14] = test: Induction of osteogenesis in Wistar rat bone marrow-derived MSC assessed as increase in increase in calcium nodes at 0.4 uM measured after 14 days with fresh culture medium replacement for every 3 days by Alizarin red staining based analysis; assay type: functional, cell-based; conditions: time 14.0 day
Mus musculus [15] = test: Anti-osteoporosis activity in OVX-induced osteoporosis ICR mouse model assessed as decrease in trabecular spacing by in femur at 20 mg/kg, IG and measured after 12 weeks by micro-CT analysis relative to control; assay type: functional
RAW264.7 [16] = test: Inhibition of RANK/RANKL/OPG signaling pathway in mouse RAW264.7 cells assessed as decrease in RANKL-stimulated RANK protein expression level at 1 uM after 5 days by Western blot analysis; assay type: cell-based; conditions: time 5.0 day
Mus musculus [17] = test: Anti-osteoporosis activity in OVX-induced osteoporosis ICR mouse model assessed as increase in BV/TV by measuring fold change in femur at 20 mg/kg, IG and measured after 12 weeks by micro-CT analysis; assay type: functional
Mus musculus [18] = test: Anti-osteoporosis activity in OVX-induced osteoporosis ICR mouse model assessed as increase in BV/TV by measuring fold change in femur at 10 mg/kg, ip and measured after 12 weeks by micro-CT analysis; assay type: functional
Mus musculus [19] = test: Anti-osteoporosis activity in OVX-induced osteoporosis ICR mouse model assessed as increase in trabecular number by measuring fold change in femur at 10 mg/kg, ip and measured after 12 weeks by micro-CT analysis; assay type: functional
RAW264.7 [20] = test: Cytotoxicity against mouse RAW264.7 cells assessed as reduction in cell viability at 1 to 10 uM after 72 hrs by MTS assay; assay type: toxicity, cell-based; conditions: raw264.7, 72 h, dose 1-10 µM
RAW264.7 [21] = test: Inhibition of RANK/RANKL/OPG signaling pathway in RANKL-stimulated mouse RAW264.7 cells assessed as increase in c-Jun protein expression level at 1 uM after 5 days by Western blot analysis; assay type: cell-based; conditions: time 5.0 day
MSC [22] = test: Activation of BMP/Smad signaling pathway in Wistar rat bone marrow-derived MSC assessed as increase in smad4 mRNA expression at 0.4 uM incubated for 14 days by RT-qPCR analysis; assay type: cell-based; conditions: filed as activator, time 14.0 day
MSC [23] = test: Activation of BMP/Smad signaling pathway in Wistar rat bone marrow-derived MSC assessed as increase in bmp5 mRNA expression at 0.4 uM incubated for 14 days by RT-qPCR analysis; assay type: cell-based; conditions: filed as activator, time 14.0 day
RAW264.7 [24] = test: Inhibition of RANK/RANKL/OPG signaling pathway in mouse RAW264.7 cells assessed as decrease in RANKL-stimulated NFATc-1 protein expression level at 1 uM after 5 days by Western blot analysis; assay type: cell-based; conditions: time 5.0 day
RAW264.7 [25] = test: Inhibition of RANK/RANKL/OPG signaling pathway in RANKL-stimulated mouse RAW264.7 cells assessed as increase in OPG protein expression level at 1 uM after 5 days by Western blot analysis; assay type: cell-based; conditions: time 5.0 day
MSC [26] = test: Induction of osteogenesis in Wistar rat bone marrow-derived MSC assessed as increase in ALP at 0.4 uM measured after 1 week with fresh culture medium replacement for every 3 days by ALP staining based analysis; assay type: functional, cell-based; conditions: time 1.0 weeks
MSC [27] = test: Activation of BMP/Smad signaling pathway in Wistar rat bone marrow-derived MSC assessed as increase in alp mRNA expression at 0.4 uM incubated for 14 days by RT-qPCR analysis; assay type: cell-based; conditions: filed as activator, time 14.0 day
MSC [28] = test: Activation of BMP/Smad signaling pathway in Wistar rat bone marrow-derived MSC assessed as increase in smad9 mRNA expression at 0.4 uM incubated for 14 days by RT-qPCR analysis; assay type: cell-based; conditions: filed as activator, time 14.0 day
Mus musculus [29] = test: Anti-osteoporosis activity in OVX-induced osteoporosis ICR mouse model assessed as increase in bone mineral density by measuring fold change in femur at 20 mg/kg, IG and measured after 12 weeks by micro-CT analysis; assay type: functional
Mus musculus [30] = test: Anti-osteoporosis activity in OVX-induced osteoporosis ICR mouse model assessed as increase in trabecular thickness by measuring fold change in femur at 20 mg/kg, IG and measured after 12 weeks by micro-CT analysis; assay type: functional
MSC [31] = test: Induction of osteogenesis in Wistar rat bone marrow-derived MSC assessed as increase in ALP at 1 uM measured after 1 week with fresh culture medium replacement for every 3 days by ALP staining based analysis; assay type: functional, cell-based; conditions: time 1.0 weeks
MSC [32] = test: Induction of osteogenesis in Wistar rat bone marrow-derived MSC assessed as increase in calcium nodes at 1 uM measured after 14 days with fresh culture medium replacement for every 3 days by Alizarin red staining based analysis; assay type: functional, cell-based; conditions: time 14.0 day
[33] = Induction of osteogenesis in Wistar rat bone marrow-derived MSC assessed as increase in bone formation by measuring fold change at 1 uM measured after 14 days with fresh culture medium replacement for every 3 days by Alizarin red staining based analysis; assay type: functional; conditions: time 14 day
RAW264.7 [34] = test: Inhibition of RANKL-induced osteoclastogenesis in mouse RAW264 cells assessed as decrease in number of osteoclast at 1 to 10 uM incubated for 5 days by TRAP staining based microscopic analysis; assay type: functional, cell-based; conditions: dose 1-10 µM, time 5.0 day
Mus musculus [35] = test: Anti-osteoporosis activity in OVX-induced osteoporosis ICR mouse model assessed as increase in trabecular number by measuring fold change in femur at 20 mg/kg, IG and measured after 12 weeks by micro-CT analysis; assay type: functional

CCCCCCN1COc2ccc3c(=O)c(-c4ccc(OC)cc4)coc3c2C1
fold change (FC) [1]: 1.2
Activity [2]: Non-Toxic

CCCCCCCCNCc1c(O)ccc2c(=O)c(-c3ccc(OC)cc3)coc12
fold change (FC) [1]: 1.1
Activity [2]: Non-Toxic

COc1ccc(-c2coc3c4c(ccc3c2=O)OCN(Cc2ccccc2)C4)cc1
fold change (FC) [1]: 1
Activity [2]: Non-Toxic

COc1ccc(-c2coc3c(C=O)c(O)ccc3c2=O)cc1
cytotoxicity at 72 h, 10 µM [3]: 15.5%
fold change (FC) [1]: 1.3
Activity [4]: Non-Toxic

COc1ccc(-c2coc3c4c(ccc3c2=O)OCN(Cc2ccoc2)C4)cc1
fold change (FC) [1]: 2.3
Activity (Mus musculus [5]): inactive
Activity (MSC [6]): Active
Activity (MSC [7]): Active
Activity (Mus musculus [8]): 37%
Activity (RAW264.7 [9]): 29
Activity [2]: Non-Toxic
fold change (FC) (Mus musculus [10]): 1.9
Activity (RAW264.7 [11]): 24
fold change (FC) (Mus musculus [12]): 15.2
Activity (RAW264.7 [13]): 30
Activity (MSC [14]): Active
Activity (Mus musculus [15]): inactive
inhibition (RAW264.7 [16]): Active
fold change (FC) (Mus musculus [17]): 2.13
fold change (FC) (Mus musculus [18]): 9.25
fold change (FC) (Mus musculus [19]): 2.17
Activity (RAW264.7 [20]): Non-Toxic
inhibition (RAW264.7 [21]): Active
Activity (MSC [22]): Active
Activity (MSC [23]): Active
inhibition (RAW264.7 [24]): Active
inhibition (RAW264.7 [25]): Active
Activity (MSC [26]): Active
Activity (MSC [27]): Active
Activity (MSC [28]): Active

CC(C)Oc1ccc2c(=O)c(-c3ccccc3)coc2c1 [IPRIFLAVONE]
Activity (Mus musculus [5]): inactive
Activity (Mus musculus [8]): inactive
fold change (FC) (Mus musculus [29]): 3.3
fold change (FC) (Mus musculus [12]): 1.9
Activity (Mus musculus [15]): inactive
fold change (FC) (Mus musculus [17]): 2.3
fold change (FC) (Mus musculus [30]): 1.17

COc1ccc(-c2coc3cc(O)ccc3c2=O)cc1 [FORMONONETIN]
Activity (MSC [31]): Active
Activity (RAW264.7 [13]): 66
Activity (MSC [32]): Active
fold change (FC) [33]: 1.4

CCCCN1COc2ccc3c(=O)c(-c4ccc(OC)cc4)coc3c2C1
fold change (FC) [1]: 1.9
Activity (Mus musculus [8]): 43%
Activity [2]: Non-Toxic
fold change (FC) (Mus musculus [10]): 1.51
inhibition (RAW264.7 [34]): inactive
fold change (FC) (Mus musculus [29]): 3.3
fold change (FC) (Mus musculus [12]): 10.3
Activity (MSC [14]): Active
Activity (Mus musculus [15]): 63%
inhibition (RAW264.7 [16]): inactive
fold change (FC) (Mus musculus [17]): 2.2
fold change (FC) (Mus musculus [18]): 6.47
fold change (FC) (Mus musculus [19]): 1.94
Activity (RAW264.7 [20]): Non-Toxic
inhibition (RAW264.7 [21]): inactive
inhibition (RAW264.7 [24]): inactive
inhibition (RAW264.7 [25]): inactive
fold change (FC) (Mus musculus [35]): 1.42
Activity (MSC [26]): Active

COc1ccc(-c2coc3c4c(ccc3c2=O)OCN(C2CCCCC2)C4)cc1
fold change (FC) [1]: 0.8
Activity [2]: Non-Toxic
